Measured values published in ChEMBL document CHEMBL5620398, “Membrane-active substituted triazines as antibacterial agents against Staphylococcus aureus with potential for low drug resistance and broad activity” (Eur J Med Chem, 2023).
Values after ≈ are worked out from the molar mass of the structure shown. Active and inactive are the calls of the source. The rule behind the calls is not given here.

These compounds were tested on Enterococcus faecalis (assay: Antibacterial activity against Enterococcus faecalis assessed as inhibition of bacterial growth by two-fold serial broth dilution method). Conditions: not given.
Type: functional
For `O=C1c2cccc3cccc(c23)C(=O)N1Nc1nc(N2CCOCC2)nc(N2CCN(Cc3ccccc3)CC2)n1`, the MIC was 200 mg/L (≈ 363 µM).
`O=C1c2cccc3cccc(c23)C(=O)N1Nc1nc(N2CCOCC2)nc(N2CCN(c3ccccc3)CC2)n1` showed an MIC of 200 mg/L (≈ 373 µM).
`CC1(C)S[C@@H]2[C@H](NC(=O)[C@H](N)c3ccc(O)cc3)C(=O)N2[C@H]1C(=O)O` [AMOXICILLIN] showed an MIC of 1.56 mg/L (≈ 4.27 µM).
For `c1ccc(CNc2nc(NCc3ccccc3)nc(N3CCOCC3)n2)cc1`, the MIC was 400 mg/L (≈ 1060 µM).
`O=C1c2cccc3cccc(c23)C(=O)N1Nc1nc(N2CCOCC2)nc(N2CCOCC2)n1` was tested, and the MIC was 200 mg/L (≈ 433 µM).

The compounds below were run on Bacillus subtilis (assay: Antibacterial activity against Bacillus subtilis assessed as inhibition of bacterial growth by two-fold serial broth dilution method). Conditions: not given.
Type: functional
`O=C1c2cccc3cccc(c23)C(=O)N1Nc1nc(N2CCOCC2)nc(N2CCN(Cc3ccccc3)CC2)n1` showed an MIC of 200 mg/L (≈ 363 µM).
`O=C1c2cccc3cccc(c23)C(=O)N1Nc1nc(N2CCOCC2)nc(N2CCN(c3ccccc3)CC2)n1` was tested, and the MIC was 50 mg/L (≈ 93.2 µM).
`CC1(C)S[C@@H]2[C@H](NC(=O)[C@H](N)c3ccc(O)cc3)C(=O)N2[C@H]1C(=O)O` [AMOXICILLIN] was tested, and the MIC was 50 mg/L (≈ 137 µM).
`c1ccc(CNc2nc(NCc3ccccc3)nc(N3CCOCC3)n2)cc1` was tested, and the MIC was “inactive”.
`O=C1c2cccc3cccc(c23)C(=O)N1Nc1nc(N2CCOCC2)nc(N2CCOCC2)n1` was tested, and the MIC was 100 mg/L (≈ 217 µM).

These compounds were tested on Listeria (assay: Antibacterial activity against Listeria sps. assessed as inhibition of bacterial growth by two-fold serial broth dilution method). Conditions: not given.
Type: functional
For `O=C1c2cccc3cccc(c23)C(=O)N1Nc1nc(N2CCOCC2)nc(N2CCN(Cc3ccccc3)CC2)n1`, the MIC was 6.25 mg/L (≈ 11.4 µM).
`O=C1c2cccc3cccc(c23)C(=O)N1Nc1nc(N2CCOCC2)nc(N2CCN(c3ccccc3)CC2)n1` gave an MIC of 0.39 mg/L (≈ 0.727 µM).
Work on `CC1(C)S[C@@H]2[C@H](NC(=O)[C@H](N)c3ccc(O)cc3)C(=O)N2[C@H]1C(=O)O` [AMOXICILLIN] yielded an MIC of 50 mg/L (≈ 137 µM).
In the case of `c1ccc(CNc2nc(NCc3ccccc3)nc(N3CCOCC3)n2)cc1`, the MIC was “inactive”.
`O=C1c2cccc3cccc(c23)C(=O)N1Nc1nc(N2CCOCC2)nc(N2CCOCC2)n1` was tested, and the MIC was 200 mg/L (≈ 433 µM).

What follows are compounds tested on Staphylococcus aureus (assay: Antibacterial activity against Staphylococcus aureus assessed as inhibition of bacterial growth by two-fold serial broth dilution method). Conditions: not given.
Type: functional
`O=C1c2cccc3cccc(c23)C(=O)N1Nc1nc(N2CCOCC2)nc(N2CCN(Cc3ccccc3)CC2)n1` showed an MIC of 100 mg/L (≈ 182 µM).
`O=C1c2cccc3cccc(c23)C(=O)N1Nc1nc(N2CCOCC2)nc(N2CCN(c3ccccc3)CC2)n1` showed an MIC of 100 mg/L (≈ 186 µM).
`CC1(C)S[C@@H]2[C@H](NC(=O)[C@H](N)c3ccc(O)cc3)C(=O)N2[C@H]1C(=O)O` [AMOXICILLIN] showed an MIC of 25 mg/L (≈ 68.4 µM).
Work on `c1ccc(CNc2nc(NCc3ccccc3)nc(N3CCOCC3)n2)cc1` yielded an MIC of 200 mg/L (≈ 531 µM).
In the case of `O=C1c2cccc3cccc(c23)C(=O)N1Nc1nc(N2CCOCC2)nc(N2CCOCC2)n1`, the MIC was 1.56 mg/L (≈ 3.38 µM).

These compounds were tested on Escherichia coli (assay: Antibacterial activity against Escherichia coli assessed as inhibition of bacterial growth by two-fold serial broth dilution method). Conditions: not given.
Type: functional
`O=C1c2cccc3cccc(c23)C(=O)N1Nc1nc(N2CCOCC2)nc(N2CCN(Cc3ccccc3)CC2)n1` showed an MIC of 200 mg/L (≈ 363 µM).
For `O=C1c2cccc3cccc(c23)C(=O)N1Nc1nc(N2CCOCC2)nc(N2CCN(c3ccccc3)CC2)n1`, the MIC was “inactive”.
`CC1(C)S[C@@H]2[C@H](NC(=O)[C@H](N)c3ccc(O)cc3)C(=O)N2[C@H]1C(=O)O` [AMOXICILLIN] gave an MIC of 100 mg/L (≈ 274 µM).
With `c1ccc(CNc2nc(NCc3ccccc3)nc(N3CCOCC3)n2)cc1` the MIC was “inactive”.
With `O=C1c2cccc3cccc(c23)C(=O)N1Nc1nc(N2CCOCC2)nc(N2CCOCC2)n1` the MIC was 200 mg/L (≈ 433 µM).

Each compound was assayed on Salmonella enterica (assay: Antibacterial activity against Salmonella enterica assessed as inhibition of bacterial growth by two-fold serial broth dilution method). Conditions: not given.
Type: functional
For `O=C1c2cccc3cccc(c23)C(=O)N1Nc1nc(N2CCOCC2)nc(N2CCN(Cc3ccccc3)CC2)n1`, the MIC was 200 mg/L (≈ 363 µM).
For `O=C1c2cccc3cccc(c23)C(=O)N1Nc1nc(N2CCOCC2)nc(N2CCN(c3ccccc3)CC2)n1`, the MIC was 200 mg/L (≈ 373 µM).
`CC1(C)S[C@@H]2[C@H](NC(=O)[C@H](N)c3ccc(O)cc3)C(=O)N2[C@H]1C(=O)O` [AMOXICILLIN] showed an MIC of 200 mg/L (≈ 547 µM).
In the case of `c1ccc(CNc2nc(NCc3ccccc3)nc(N3CCOCC3)n2)cc1`, the MIC was “inactive”.
`O=C1c2cccc3cccc(c23)C(=O)N1Nc1nc(N2CCOCC2)nc(N2CCOCC2)n1` showed an MIC of 100 mg/L (≈ 217 µM).

Each compound was assayed on Acinetobacter calcoaceticus (assay: Antibacterial activity against Acinetobacter calcoaceticus assessed as inhibition of bacterial growth by two-fold serial broth dilution method). Conditions: not given.
Type: functional
Work on `O=C1c2cccc3cccc(c23)C(=O)N1Nc1nc(N2CCOCC2)nc(N2CCN(Cc3ccccc3)CC2)n1` yielded an MIC of 200 mg/L (≈ 363 µM).
Compound `O=C1c2cccc3cccc(c23)C(=O)N1Nc1nc(N2CCOCC2)nc(N2CCN(c3ccccc3)CC2)n1` has an MIC of 200 mg/L (≈ 373 µM).
With `CC1(C)S[C@@H]2[C@H](NC(=O)[C@H](N)c3ccc(O)cc3)C(=O)N2[C@H]1C(=O)O` [AMOXICILLIN] the MIC was 50 mg/L (≈ 137 µM).
For `c1ccc(CNc2nc(NCc3ccccc3)nc(N3CCOCC3)n2)cc1`, the MIC was 200 mg/L (≈ 531 µM).
`O=C1c2cccc3cccc(c23)C(=O)N1Nc1nc(N2CCOCC2)nc(N2CCOCC2)n1` gave an MIC of 200 mg/L (≈ 433 µM).

These compounds were tested on Serratia marcescens (assay: Antibacterial activity against Serratia marcescens assessed as inhibition of bacterial growth by two-fold serial broth dilution method). Conditions: not given.
Type: functional
Work on `O=C1c2cccc3cccc(c23)C(=O)N1Nc1nc(N2CCOCC2)nc(N2CCN(Cc3ccccc3)CC2)n1` yielded an MIC of 50 mg/L (≈ 90.8 µM).
With `O=C1c2cccc3cccc(c23)C(=O)N1Nc1nc(N2CCOCC2)nc(N2CCN(c3ccccc3)CC2)n1` the MIC was 50 mg/L (≈ 93.2 µM).
`CC1(C)S[C@@H]2[C@H](NC(=O)[C@H](N)c3ccc(O)cc3)C(=O)N2[C@H]1C(=O)O` [AMOXICILLIN] showed an MIC of 1.56 mg/L (≈ 4.27 µM).
In the case of `c1ccc(CNc2nc(NCc3ccccc3)nc(N3CCOCC3)n2)cc1`, the MIC was “inactive”.
Work on `O=C1c2cccc3cccc(c23)C(=O)N1Nc1nc(N2CCOCC2)nc(N2CCOCC2)n1` yielded an MIC of 200 mg/L (≈ 433 µM).

Each compound was assayed on MDA-MB-435 (assay: Cytotoxicity against human MDA-MB-435 cells at 10 uM). Conditions: not given.
Type: functional
In the case of `O=C1c2cccc3cccc(c23)C(=O)N1Nc1nc(N2CCOCC2)nc(N2CCN(c3ccccc3)CC2)n1`, the Activity was -12.6%.

What follows are compounds tested on A498 (assay: Cytotoxicity against human A498 cells at 10 uM). Conditions: not given.
Type: functional
Compound `O=C1c2cccc3cccc(c23)C(=O)N1Nc1nc(N2CCOCC2)nc(N2CCN(c3ccccc3)CC2)n1` has an Activity of -3.13%.

The compounds below were run on MDA-MB-468 (assay: Cytotoxicity against human MDA-MB-468 cells at 10 uM). Conditions: not given.
Type: functional
In the case of `O=C1c2cccc3cccc(c23)C(=O)N1Nc1nc(N2CCOCC2)nc(N2CCN(c3ccccc3)CC2)n1`, the Activity was -15.85%.

These compounds were tested on COLO 205 (assay: Cytotoxicity against human COLO 205 cells assessed as inhibition of cell growth at 10 uM). Conditions: not given.
Type: functional
Work on `O=C1c2cccc3cccc(c23)C(=O)N1Nc1nc(N2CCOCC2)nc(N2CCN(c3ccccc3)CC2)n1` yielded an inhibition at 10 µM of 96.5%.

What follows are compounds tested on SK-MEL-5 (assay: Cytotoxicity against human SK-MEL-5 cells assessed as inhibition of cell growth at 10 uM). Conditions: not given.
Type: functional
Compound `O=C1c2cccc3cccc(c23)C(=O)N1Nc1nc(N2CCOCC2)nc(N2CCN(c3ccccc3)CC2)n1` has an inhibition at 10 µM of 95%.

What follows are compounds tested on HOP-92 (assay: Cytotoxicity against human HOP-92 cells assessed as inhibition of cell growth at 10 uM). Conditions: not given.
Type: functional
Compound `O=C1c2cccc3cccc(c23)C(=O)N1Nc1nc(N2CCOCC2)nc(N2CCN(c3ccccc3)CC2)n1` has an inhibition at 10 µM of 92.5%.

What follows are compounds tested on MOLT-4 (assay: Cytotoxicity against human MOLT-4 cells assessed as inhibition of cell growth at 10 uM). Conditions: not given.
Type: functional
`O=C1c2cccc3cccc(c23)C(=O)N1Nc1nc(N2CCOCC2)nc(N2CCN(c3ccccc3)CC2)n1` was tested, and the inhibition at 10 µM was 81.6%.

What follows are compounds tested on M14 (assay: Cytotoxicity against human M14 cells assessed as inhibition of cell growth at 10 uM). Conditions: not given.
Type: functional
Work on `O=C1c2cccc3cccc(c23)C(=O)N1Nc1nc(N2CCOCC2)nc(N2CCN(c3ccccc3)CC2)n1` yielded an inhibition at 10 µM of 80.6%.

The compounds below were run on HEK293 (assay: Cytotoxicity against human HEK293 cells at 0.01 uM by MTT assay). Conditions: hek293, 0.01 µM.
Type: toxicity, cell-based
Work on `O=C1c2cccc3cccc(c23)C(=O)N1Nc1nc(N2CCOCC2)nc(N2CCN(c3ccccc3)CC2)n1` yielded an Activity of 14.05%.

These compounds were tested on HEK293 (assay: Cytotoxicity against human HEK293 cells at 0.1 uM by MTT assay). Conditions: hek293, 0.1 µM.
Type: toxicity, cell-based
With `O=C1c2cccc3cccc(c23)C(=O)N1Nc1nc(N2CCOCC2)nc(N2CCN(c3ccccc3)CC2)n1` the Activity was 13.57%.

The compounds below were run on HEK293 (assay: Cytotoxicity against human HEK293 cells at 1 uM by MTT assay). Conditions: hek293, 1 µM.
Type: toxicity, cell-based
`O=C1c2cccc3cccc(c23)C(=O)N1Nc1nc(N2CCOCC2)nc(N2CCN(c3ccccc3)CC2)n1` showed an Activity of 13.01%.

What follows are compounds tested on HEK293 (assay: Cytotoxicity against human HEK293 cells at 10 uM by MTT assay). Conditions: hek293, 10 µM.
Type: toxicity, cell-based
In the case of `O=C1c2cccc3cccc(c23)C(=O)N1Nc1nc(N2CCOCC2)nc(N2CCN(c3ccccc3)CC2)n1`, the Activity was 12%.

These compounds were tested on HEK293 (assay: Cytotoxicity against human HEK293 cells at 100 uM by MTT assay). Conditions: hek293, 100 µM.
Type: toxicity, cell-based
For `O=C1c2cccc3cccc(c23)C(=O)N1Nc1nc(N2CCOCC2)nc(N2CCN(c3ccccc3)CC2)n1`, the Activity was 10.08%.
